{
  "source": "patent US20180161295A1",
  "about": "“TREATMENT OF CLOSED HEAD INJURY AND HEMORRHAGIC STROKE WITH HBED” (University of Florida Research Foundation, Incorporated, priority 2014, published 2018)",
  "key": {"[1]": {"tested_on": "mTBI animals", "test": "Lower limb spasticity (velocity dependent ankle torque and triceps EMG) after weight drop closed head injury (mTBI)", "format": "in vivo, rats", "settings": "50 mg/kg s.c. 2x per day for 2 weeks, PO Wk-1 and PO Wk-3", "protocol": "Ankle torque, displacement and EMGs are simultaneously recorded and time-locked to onset of dorsiflexion. Velocity dependent ankle torque was tested between 49 and 612 degrees/sec dorsiflexion in awake rats.\nThese experiments were performed to assess the influence of treatment using NaHBED following mTBI. Fifteen mTBIs were performed as described above, using 450×1.25m weight drop closed head injury. The animals were randomly divided into two groups, control (n=5) and iron chelator (IC) NaHBED treatment (n=10). Beginning on the first day following injury, NaHBED was delivered by subcutaneous injection of 50 mg/kg, 2× per day, for a total dosage of 100 mg/kg/body weight/day. NaHBED 60 mg/ml, was dissolved in deionized, sterilized, iron-free water. The IC was administered every day for 2 weeks. The control animals received equal volume subcutaneous injections of saline.\nSpasticity: The influence of treatment was tested by analysis of lower limb spasticity (velocity dependent ankle torque and triceps EMG), in mTBI treated and non-treated mTBI animals. A normal ICT group (Normal HBED) was also included as a treatment control."}, "[2]": {"tested_on": "iron-loaded beagle dogs", "test": "28-day intravenous repeat dose toxicity study, iron-loaded dogs", "format": "in vivo", "protocol": "(§1) 28-Day Intravenous Repeat Dose Toxicity Study of NaHBED in Male and Female Dogs SRI Study.\n(§2) Male and female beagle dogs were either infused biweekly with iron dextran to a level of approximately 500 mg iron/kg body weight or held without iron loading during the 2-month pretreatment phase. All dogs were held an additional 2 ½ months before beginning dose administration with N,N′-di(2-hydroxybenzypethylenediarnine-N,N′-diacetic acid, monosodium salt (NaHBED). Groups of 4 male and 4 female dogs that had been iron-loaded received NaHBED at 21.46, 64.38, or 128.76 mg/kg daily in 15-35 min intravenous (i.v.) infusions for 28 consecutive days; a non-iron-loaded group containing the same number of dogs of each sex received 21.46 mg NaHBED/kg/day i.v. during the same period. Vehicle-only control groups of iron-loaded and non-iron-loaded dogs (3 males and 3 females per group) were subjected to the same regimen concurrently. […] During the treatment period, clinical observations on the animals were made daily after dosing. Body weights were measured before the start of dosing with NaHBED, weekly during the 28-day treatment period, and at study termination when recovery animals were sacrificed; food consumption was measured weekly during the treatment period. Hematology and clinical chemistry parameters, including serum iron parameters, were assessed at Weeks-1, 2, 4, and 8. Urinalysis was performed on bladder urine samples at necropsy. Plasma samples were collected for drug level analysis at selected timepoints after dosing on the first day and 28 days later. Routine ophthalmologic examinations and cardiovascular evaluations were conducted during the week prior to dose administration and during the third and fourth (eye exams) or fourth (cardiology exams) weeks of NaHBED administration. Organ weights were measured at necropsy and organ-to-body and -brain ratios determined. Gross and microscopic examination of a complete set of tissues was performed on iron-loaded high dose (128.76 mg/kg/day) and control groups and on non-iron-loaded low dose (21.46 mg/kg/day) and control groups. Specimens from liver, heart, spleen, lung, kidney, and eye were taken from each dog at necropsy for subsequent tissue analyses of iron and zinc content."}, "[3]": {"tested_on": "non-iron-loaded beagle dogs", "test": "28-day intravenous repeat dose toxicity study, non-iron-loaded (normal) dogs", "format": "in vivo", "protocol": "as §1, §2"}, "[4]": {"test": "Toxicokinetics (plasma drug level analysis) in the 28-day i.v. dog study", "format": "in vivo, beagle dogs", "protocol": "Male and female beagle dogs were either infused biweekly with iron dextran to a level of approximately 500 mg iron/kg body weight or held without iron loading during the 2-month pretreatment phase. […] During the treatment period, clinical observations on the animals were made daily after dosing. Body weights were measured before the start of dosing with NaHBED, weekly during the 28-day treatment period, and at study termination when recovery animals were sacrificed; food consumption was measured weekly during the treatment period. Hematology and clinical chemistry parameters, including serum iron parameters, were assessed at Weeks-1, 2, 4, and 8. Urinalysis was performed on bladder urine samples at necropsy. Plasma samples were collected for drug level analysis at selected timepoints after dosing on the first day and 28 days later. Routine ophthalmologic examinations and cardiovascular evaluations were conducted during the week prior to dose administration and during the third and fourth (eye exams) or fourth (cardiology exams) weeks of NaHBED administration. Organ weights were measured at necropsy and organ-to-body and -brain ratios determined. […] Specimens from liver, heart, spleen, lung, kidney, and eye were taken from each dog at necropsy for subsequent tissue analyses of iron and zinc content."}, "[5]": {"settings": "repeated daily i.v. doses, iron-loaded beagle dogs, 28 days"}, "[6]": {"settings": "non-iron-loaded dogs, 21.46 mg/kg/day i.v., at necropsy"}, "[7]": {"settings": "non-iron-loaded dogs, 21.46 mg/kg/day i.v., statistically significant for males on Day 15"}},
  "note": "Entries after “also recorded” stand apart in the source; their conditions may differ.",
  "data": [
    {"smiles": "O=C([O-])CN(CCN(CC(=O)O)Cc1ccccc1O)Cc1ccccc1O.[Na+]", "note": "[NaHBED]", "values": [
      {"measurement": "amplitudes of time locked EMGs", "setting": "[1]", "value": "significantly lower"},
      {"measurement": "amplitudes of velocity dependent ankle torques", "setting": "[1]", "value": "significantly lower"},
      {"measurement": "histopathologic findings clearly associated with administration", "setting": "[2]; daily i.v. for 28 days", "value": "no histopathologic findings"},
      {"measurement": "effects on body weight and food consumption; ophthalmologic, cardiovascular, hematology, clinical chemistry and urinalysis parameters; organ weights or weight ratios", "setting": "[2]; iron-loaded dogs, daily i.v. for 28 days", "value": "no distinguishable effects"},
      {"measurement": "observable adverse effects", "setting": "[2]; iron-loaded dogs, high dose level (128.76 mg/kg/day i.v., 28 days)", "value": "emesis and/or diarrhea"},
      {"measurement": "mean kidney iron content", "setting": "[2]; iron-loaded male groups, at necropsy", "value": "statistically lower"},
      {"measurement": "kidney zinc content", "setting": "[2]; iron-loaded, high dose level group, at necropsy", "value": "statistically lower"},
      {"measurement": "urine coloration", "setting": "[2]; majority of dogs at all dose levels, most of the treatment period", "value": "Reddish urine"},
      {"measurement": "maximum tolerated dose (MTD) level", "setting": "[2]; [5]", "value": "> 128.76", "unit": "mg/kg/day"},
      {"measurement": "no observable adverse effect level (NOAEL)", "setting": "[2]; [5]", "value": 64.38, "unit": "mg/kg/day"},
      {"measurement": "mobilization and excretion of iron and zinc", "setting": "[3]; non-iron-loaded dogs, 21.46 mg/kg/day dose level, monosodium salt, 21.46 mg/kg/day", "value": "induced mobilization and enhanced excretion; also recorded: clear indication"},
      {"measurement": "other effects", "setting": "[3]; non-iron-loaded dogs, 21.46 mg/kg/day i.v., 28 days", "value": "No other effects"},
      {"measurement": "iron content of kidneys", "setting": "[3]; [6]", "value": "dramatic decrease"},
      {"measurement": "zinc content of kidneys", "setting": "[3]; [6]", "value": "dramatic decrease"},
      {"measurement": "urine coloration", "setting": "[3]; non-iron-loaded dogs, 21.46 mg/kg/day i.v., occasionally", "value": "slightly red coloration"},
      {"measurement": "iron-to-transferrin ratio", "setting": "[3]; [7]", "value": "apparent elevation"},
      {"measurement": "serum iron", "setting": "[3]; [7]", "value": "apparent elevation"},
      {"measurement": "iron and zinc in kidneys, females", "setting": "[3]; non-iron-loaded female dogs, 21.46 mg/kg/day i.v., at necropsy", "value": "virtual absence of either ion"},
      {"measurement": "total body clearance, Day 28 relative to Day 1", "setting": "[4]; daily i.v., Day 28 vs Day 1", "value": "correspondingly elevated"},
      {"measurement": "volume of distribution, Day 28 relative to Day 1", "setting": "[4]; daily i.v., Day 28 vs Day 1", "value": "correspondingly elevated"},
      {"measurement": "toxicokinetic parameters, iron-loaded versus non-iron-loaded dogs", "setting": "[4]; same dose level", "value": "similar"}
    ]}
  ]
}
